Here are results for 28 molecules from patent publication US20030235877A1, “Conjugates of haptens to beta-lactam derivatives and their use for detecting and/or quantifying haptens in solution and device for implementation thereof” (priority 1996, published 2003).

T1 sequence (P05364 21-381): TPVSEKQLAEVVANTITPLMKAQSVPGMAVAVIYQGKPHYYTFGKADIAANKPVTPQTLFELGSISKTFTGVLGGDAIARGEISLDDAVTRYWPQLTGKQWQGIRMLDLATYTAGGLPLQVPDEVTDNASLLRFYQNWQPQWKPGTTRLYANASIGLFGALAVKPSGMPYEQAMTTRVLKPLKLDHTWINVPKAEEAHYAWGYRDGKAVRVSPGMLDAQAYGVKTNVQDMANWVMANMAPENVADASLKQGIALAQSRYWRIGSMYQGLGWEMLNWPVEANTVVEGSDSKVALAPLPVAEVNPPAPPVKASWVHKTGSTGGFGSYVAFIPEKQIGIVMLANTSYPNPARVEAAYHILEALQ

One data set concerns the target T1, β-lactamase of Enterobacter cloacae P99 (Enterobacter cloacae, UniProt P05364).
T1 construct: Class C β-lactamase as that extracted from Enterobacter cloacae P99; host or cells: Enterobacter cloacae P99 (enzyme described as extracted from this strain)
Briefly: Ki of conjugates, calculated using the β-lactamase of Enterobacter cloacae P99. In kind it is biochemical.
Settings: not given
An excerpt:
(§1) The particular mode of conjugation claimed in the present invention guarantees to maintain kinetic parameters (Km, Ki, kcat and Ka=k2/K, where Km is the enzyme Michaelis-Menten constant, Ki is the inhibitor-enzyme complex dissociation constant, kcat the catalytic constant and Ka the apparent second-order rate constant for acyl enzyme formation respectively) toward β-lactamases and penicillin detectors, which are essentially the same as those of common penicillins.
^x(Column 9): calculated using the β-lactamase of Enterobacter cloacae P99
For the molecule `Cc1onc(-c2ccc(C(=O)OC3CCC4C5CCc6cc(O)ccc6C5CCC34C)cc2)c1C(=O)NC1C(=O)N2C1SC(C)(C)C2C(=O)O` (stereo not drawn) [Conjugate 4], the Ki is 24 ± 26 nM.

For `Cc1onc(-c2ccc(C(=O)OC3CCC4C5CCC6=CC(=O)CCC6C5CCC34C)cc2)c1C(=O)NC1C(=O)N2C1SC(C)(C)C2C(=O)O` (stereo not drawn) [Conjugate 5], the Ki was 18 ± 23 nM.

Consider `Cc1onc(-c2ccc(C(=O)OC3CCC4C5CCC6=CC(=O)CCC6(C)C5CCC34C)cc2)c1C(=O)NC1C(=O)N2C1SC(C)(C)C2C(=O)O` (stereo not drawn) [Conjugate 6], for which the Ki was 22 ± 19 nM.

In the case of `CC(=O)C1CCC2C3CCC4=CC(=O)CCC4(C)C3C(OC(=O)c3ccc(-c4noc(C)c4C(=O)NC4C(=O)N5C4SC(C)(C)C5C(=O)O)cc3)CC12C` (stereo not drawn) [Conjugate 7], the Ki was 19 ± 27 nM.

For the molecule `Cc1onc(-c2ccc(C(=O)NCCCCC(=O)OC3CCC4C5CCC6=CC(=O)CCC6C5CCC34C)cc2)c1C(=O)NC1C(=O)N2C1SC(C)(C)C2C(=O)O` (stereo not drawn) [Conjugate 8], the Ki is 23 ± 18 nM.

In the case of `Cc1onc(-c2ccc(C(=O)NCCCCC(=O)OC3CCC4C5CCC6=CC(=O)CCC6(C)C5CCC34C)cc2)c1C(=O)NC1C(=O)N2C1SC(C)(C)C2C(=O)O` (stereo not drawn) [Conjugate 9], the Ki is 17 ± 21 nM.

With `Cc1onc(-c2ccc(OCCOC3CCC4C5CCc6cc(O)ccc6C5CCC34C)c(Cl)c2)c1C(=O)NC1C(=O)N2C1SC(C)(C)C2C(=O)O` (stereo not drawn) [Conjugate 10], the Ki is 14 ± 17 nM.

As for `Cc1onc(-c2ccc(OCCOC3CCC4C5CCC6=CC(=O)CCC6C5CCC34C)c(Cl)c2)c1C(=O)NC1C(=O)N2C1SC(C)(C)C2C(=O)O` (stereo not drawn) [Conjugate 11], the Ki is 12 ± 14 nM.

For `Cc1onc(-c2ccc(OCCOC3CCC4C5CCC6=CC(=O)CCC6(C)C5CCC34C)c(Cl)c2)c1C(=O)NC1C(=O)N2C1SC(C)(C)C2C(=O)O` (stereo not drawn) [Conjugate 12], the Ki was 15 ± 16 nM.

`CC(=O)C1CCC2C3CCC4=CC(=O)CCC4(C)C3C(OCCOc3ccc(-c4noc(C)c4C(=O)NC4C(=O)N5C4SC(C)(C)C5C(=O)O)cc3Cl)CC12C` (stereo not drawn) [Conjugate 13]: the inhibition constant Ki was 20 ± 21 nM.

With `Cc1onc(-c2ccc(C(=O)NCCCOC3CCC4C5CCc6cc(O)ccc6C5CCC34C)cc2)c1C(=O)NC1C(=O)N2C1SC(C)(C)C2C(=O)O` (stereo not drawn) [Conjugate 14], the Ki is 18 ± 23 nM.

With `Cc1onc(-c2ccc(C(=O)NCCCOC3CCC4C5CCC6=CC(=O)CCC6C5CCC34C)cc2)c1C(=O)NC1C(=O)N2C1SC(C)(C)C2C(=O)O` (stereo not drawn) [Conjugate 15], the Ki was 28 ± 22 nM.

For the molecule `Cc1onc(-c2ccc(C(=O)NCCCOC3CCC4C5CCC6=CC(=O)CCC6(C)C5CCC34C)cc2)c1C(=O)NC1C(=O)N2C1SC(C)(C)C2C(=O)O` (stereo not drawn) [Conjugate 16], the Ki is 26 ± 27 nM.

As for `CC(=O)C1CCC2C3CCC4=CC(=O)CCC4(C)C3C(OCCCNC(=O)c3ccc(-c4noc(C)c4C(=O)NC4C(=O)N5C4SC(C)(C)C5C(=O)O)cc3)CC12C` (stereo not drawn) [Conjugate 17], the Ki is 21 ± 24 nM.

Regarding `Cc1onc(-c2ccc(OC(=O)CCC(=O)OC3CCC4C5CCC6=CC(=O)CCC6(C)C5CCC34C)cc2)c1C(=O)NC1C(=O)N2C1SC(C)(C)C2C(=O)O` (stereo not drawn) [Conjugate 18], the Ki is 23 ± 19 nM.

Consider `Cc1onc(-c2ccc(OC(=O)CCC(=O)OC3CCC4C5CCC6=CC(=O)CCC6C5CCC34C)cc2)c1C(=O)NC1C(=O)N2C1SC(C)(C)C2C(=O)O` (stereo not drawn) [Conjugate 19], for which the Ki was 21 ± 24 nM.

Consider `Cc1onc(-c2ccc(NC(=O)CCOC3CCC4C5CCC6=CC(=O)CCC6(C)C5CCC34C)cc2)c1C(=O)NC1C(=O)N2C1SC(C)(C)C2C(=O)O` (stereo not drawn) [Conjugate 20], for which the Ki is 29 ± 27 nM.

Regarding `Cc1onc(-c2ccc(NC(=O)CCOC3CCC4C5CCC6=CC(=O)CCC6C5CCC34C)cc2)c1C(=O)NC1C(=O)N2C1SC(C)(C)C2C(=O)O` (stereo not drawn) [Conjugate 21], the Ki is 30 ± 33 nM.

With `Cc1onc(-c2ccc(NC(=O)CCOC3CCC4C5CCc6cc(O)ccc6C5CCC34C)cc2)c1C(=O)NC1C(=O)N2C1SC(C)(C)C2C(=O)O` (stereo not drawn) [Conjugate 23], the Ki was 19 ± 21 nM.

With `Cc1onc(-c2ccc(OCCC(=O)OC3CCC4C5CCC6=CC(=O)CCC6(C)C5CCC34C)cc2)c1C(=O)NC1C(=O)N2C1SC(C)(C)C2C(=O)O` (stereo not drawn) [Conjugate 24], the Ki was 21 ± 26 nM.

With `Cc1onc(-c2ccc(OCCC(=O)OC3CCC4C5CCC6=CC(=O)CCC6C5CCC34C)cc2)c1C(=O)NC1C(=O)N2C1SC(C)(C)C2C(=O)O` (stereo not drawn) [Conjugate 25], the Ki is 28 ± 31 nM.

Take `CC(=O)C1CCC2C3CCC4=CC(=O)CCC4(C)C3C(OC(=O)CCOc3ccc(-c4noc(C)c4C(=O)NC4C(=O)N5C4SC(C)(C)C5C(=O)O)cc3)CC12C` (stereo not drawn) [Conjugate 28]: the Ki is 26 ± 26 nM.

As for `Cc1onc(-c2ccc(OCCC(=O)OC3CCC4C5CCc6cc(O)ccc6C5CCC34C)cc2)c1C(=O)NC1C(=O)N2C1SC(C)(C)C2C(=O)O` (stereo not drawn) [Conjugate 29], the Ki was 21 ± 24 nM.

For another data set, the target named is T2, penicillin detector of the Beta-Star® Test (Bacillus licheniformis, UniProt P12287).
T2 construct: purchased UCB, Belgium (BetaSTAR kit)
T2 sequence (P12287 346-601): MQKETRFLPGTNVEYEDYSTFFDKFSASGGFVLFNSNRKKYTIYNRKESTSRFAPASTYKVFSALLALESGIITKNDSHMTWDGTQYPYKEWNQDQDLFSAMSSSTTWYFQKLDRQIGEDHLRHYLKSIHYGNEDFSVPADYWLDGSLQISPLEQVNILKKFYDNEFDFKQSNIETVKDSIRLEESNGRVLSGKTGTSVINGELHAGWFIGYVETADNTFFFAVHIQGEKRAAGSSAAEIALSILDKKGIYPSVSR
Put plainly: Ka (apparent second-order rate constant for acyl enzyme formation), calculated using the penicillin detector of the Beta-Star Test. In kind it is binding. Particulars: Ka=k2/K.
Source text: as §1
^□(Column 10): calculated using the penicillin detector of the Beta-Star® Test
The detector showing the best affinity for the progesterone benzylpenicillinate conjugate is the polypeptide included in the Beta-star® kit. This genetic engineering peptide has kept a very high affinity for benzylpenicillin but has no enzymatic activity. It is thus coupled to colored particles for allowing sensitive detection.
Turning to `CC(=O)C1CCC2C1CC(OC(C)Cc1ccc(CC(=O)NC3C(=O)N4C3SC(C)(C)C4C(=O)O)cc1)C1C3CCC(=O)C=C3CCC21` (stereo not drawn) [Conjugate 2], the Ka is reported as 4.6 ± 3.0 × 10^−6 L.M^−1.

In the case of `CC1(C)SC2C(NC(=O)Cc3ccc(CC(=O)OC4CCC5C6CCc7cc(O)ccc7C6CCC45C)cc3)C(=O)N2C1C(=O)O` (stereo not drawn) [Conjugate 30], the Ka was 3.8 ± 2.9 × 10^−6 L.M^−1.

For `CC1(C)SC2C(NC(=O)Cc3ccc(CC(=O)OC4CCC5C6CCC7=CC(=O)CCC7(C)C6CCC45C)cc3)C(=O)N2C1C(=O)O` (stereo not drawn) [Conjugate 31], the Ka is 4.1 ± 3.2 × 10^−6 L.M^−1.

Take `CC1(C)SC2C(NC(=O)Cc3ccc(CC(=O)OC4CCC5C6CCc7cc(O)ccc7C6CCC45C)cc3)C(=O)N2C1C(=O)O` (stereo not drawn) [Conjugate 32]: the Ka is 4.8 ± 3.5 × 10^−6 L.M^−1.

Another data set deals with CC1(C)SC2C(NC(=O)C(C(=O)OC3CCC4C5CCC6=CC(=O)CCC6C5CCC34C)c3ccccc3)C(=O)N2C1C(=O)O. Put plainly: purified protein, by the assay type. Particulars: other: conjugate; type C β-lactamase P99.
For “type C β-lactamase from Enterobacter cloacae P99 (Enterobacter cloacae)”, the Km worked out at 0.074 µM and the kcat stood at 0.25 s⁻¹.

The subject of a further data set is O=C(Cc1cccs1)N[C@@H]1C(=O)N2C(C(=O)O)=C(/C=C/c3ccc([N+](=O)[O-])cc3[N+](=O)[O-])CS[C@H]12. Put plainly: purified protein, by the assay type. Particulars: other: reporter substrate; type C β-lactamase P99.
With “type C β-lactamase from Enterobacter cloacae P99 (Enterobacter cloacae)”, the Km was 25 µM and the kcat came to 780 s⁻¹.

Another data set deals with CC(=O)C1CCC2C3CCC4=CC(=O)CCC4(C)C3C(OC(=O)c3ccc(-c4noc(C)c4C(=O)NC4C(=O)N5C4SC(C)(C)C5C(=O)O)cc3)CC12C. Put plainly: purified protein, by the assay type. Particulars: other: conjugate; type C β-lactamase P99.
“type C β-lactamase from Enterobacter cloacae P99 (Enterobacter cloacae)”: the Km was determined as 0.0017 µM and the kcat amounted to 0.01 s⁻¹.

In general, Ki refers to the equilibrium dissociation constant of an inhibitor or competing ligand from its target. As usually defined, the Km is the concentration of substrate that gives half-maximal velocity. One may read the kcat as the number of substrate molecules converted per active site and unit of time at saturation.
